Measurements as given in ChEMBL document CHEMBL4177646, “Discovery of novel nitroimidazole enols as Pseudomonas aeruginosa DNA cleavage agents” (Bioorg Med Chem, 2017).
Values after ≈ are worked out from the molar mass of the structure shown. Active and inactive are the calls of the source. The calls are words filed in the database; no cut-off is given here.

How the values were obtained:
DNA [1] = assay: Binding affinity to sensitive Pseudomonas aeruginosa DNA assessed as hypochromic effect at 3.81 x 10^-6mol/L by neutral red dye based UV-vis spectroscopic method; type: nucleic-acid assay
Pseudomonas aeruginosa [2] = assay: Antibacterial activity against drug-resistant Pseudomonas aeruginosa after 24 hrs by micro broth dilution method; type: functional
DNA [3] = assay: Binding affinity to sensitive Pseudomonas aeruginosa DNA assessed as hypochromic effect by neutral red dye based UV-vis spectroscopic method; type: nucleic-acid assay
Candida albicans [4] = assay: Antifungal activity against Candida albicans ATCC 90023 after 24 hrs by micro broth dilution method; type: functional; conditions: ATCC 90023, 24 h
Pseudomonas aeruginosa [5] = assay: Bactericidal activity against drug sensitive Pseudomonas aeruginosa assessed as bacterial load at 4 times MIC after 150 mins by time-kill assay (reference value: 4.3 10^6 CFU/ml); type: functional
Pseudomonas aeruginosa [6] = assay: Bactericidal activity against drug sensitive Pseudomonas aeruginosa assessed as bacterial load at 4 times MIC after 240 mins by time-kill assay (reference value: 1.1 10^10 CFU/ml); type: functional
Albumin [7] = target: T1, Albumin (Homo sapiens, UniProt P02768); assay: Binding affinity to HSA assessed as equilibrium binding constant at pH 7.4 at 300 K by scatchard assay; type: ADME; conditions: isolated protein
Pseudomonas aeruginosa [8] = assay: Bactericidal activity against drug sensitive Pseudomonas aeruginosa assessed as bacterial load at 4 times MIC after 270 mins by time-kill assay (reference value: 1.8 10^10 CFU/ml); type: functional
Albumin [9] = target: T1, Albumin; assay: Binding affinity to HSA assessed as modified Stern-Volmer quenching constant at pH 7.4 at 290 K by fluorescence assay; type: ADME; conditions: isolated protein
Staphylococcus aureus [10] = assay: Antibacterial activity against drug-resistant Staphylococcus aureus after 24 hrs by micro broth dilution method; type: functional
Albumin [11] = target: T1, Albumin; assay: Binding affinity to HSA assessed as modified Stern-Volmer quenching constant at pH 7.4 at 313 K by fluorescence assay; type: ADME; conditions: isolated protein
Albumin [12] = target: T1, Albumin; assay: Binding affinity to HSA assessed as equilibrium binding constant at pH 7.4 at 313 K by scatchard assay; type: ADME; conditions: isolated protein
Pseudomonas aeruginosa [13] = assay: Bactericidal activity against drug sensitive Pseudomonas aeruginosa assessed as bacterial load at 4 times MIC after 180 mins by time-kill assay (reference value: 3.5 10^7 CFU/ml); type: functional
Escherichia coli [14] = assay: Antibacterial activity against Escherichia coli ATCC 25922 after 24 hrs by micro broth dilution method; type: functional; conditions: ATCC 25922, 24 h
Albumin [15] = target: T1, Albumin; assay: Binding affinity to HSA assessed as Stern-Volmer quenching constant at pH 7.4 at 300 K by fluorescence assay; type: ADME; conditions: isolated protein
Albumin [16] = target: T1, Albumin; assay: Binding affinity to HSA assessed as biomolecular quenching rate constant at pH 7.4 at 313 K by fluorescence assay; type: ADME; conditions: isolated protein
Albumin [17] = target: T1, Albumin; assay: Binding affinity to HSA assessed as modified Stern-Volmer quenching constant at pH 7.4 at 300 K by fluorescence assay; type: ADME; conditions: isolated protein
Candida tropicalis [18] = assay: Antifungal activity against Candida tropicalis after 24 hrs by micro broth dilution method; type: functional
Albumin [19] = target: T1, Albumin; assay: Binding affinity to HSA assessed as biomolecular quenching rate constant at pH 7.4 at 300 K by fluorescence assay; type: ADME; conditions: isolated protein
Pseudomonas aeruginosa [20] = assay: Antibacterial activity against Pseudomonas aeruginosa ATCC 27853 after 24 hrs by micro broth dilution method; type: functional; conditions: ATCC 27853, 24 h
Albumin [21] = target: T1, Albumin; assay: Binding affinity to HSA assessed as Stern-Volmer quenching constant at pH 7.4 at 290 K by fluorescence assay; type: ADME; conditions: isolated protein
Candida albicans [22] = assay: Antifungal activity against drug-resistant Candida albicans after 24 hrs by micro broth dilution method; type: functional
Albumin [23] = target: T1, Albumin; assay: Binding affinity to HSA assessed as equilibrium binding constant at pH 7.4 at 290 K by scatchard assay; type: ADME; conditions: isolated protein
DNA [24] = assay: Induction of sensitive Pseudomonas aeruginosa DNA cleavage at 75 uM by ethidium bromide staining-based agarose gel electrophoresis; type: nucleic-acid assay
Pseudomonas aeruginosa [25] = assay: Bactericidal activity against drug sensitive Pseudomonas aeruginosa assessed as bacterial load at 4 times MIC after 210 mins by time-kill assay (reference value: 3.2 10^9 CFU/ml); type: functional
Albumin [26] = target: T1, Albumin; assay: Binding affinity to HSA assessed as biomolecular quenching rate constant at pH 7.4 at 290 K by fluorescence assay; type: ADME; conditions: isolated protein
Staphylococcus aureus [27] = assay: Antibacterial activity against Staphylococcus aureus ATCC 29213 after 24 hrs by micro broth dilution method; type: functional; conditions: ATCC 29213, 24 h
Albumin [28] = target: T1, Albumin; assay: Binding affinity to HSA assessed as Stern-Volmer quenching constant at pH 7.4 at 313 K by fluorescence assay; type: ADME; conditions: isolated protein
Escherichia coli [29] = assay: Antibacterial activity against drug-resistant Escherichia coli after 24 hrs by micro broth dilution method; type: functional
Staphylococcus aureus [30] = assay: Antibacterial activity against methicillin-resistant Staphylococcus aureus N315 after 24 hrs by micro broth dilution method; type: functional; conditions: N315, 24 h
Candida tropicalis [31] = assay: Potency index, ratio of fluconazole MIC to compound MIC for Candida tropicalis; type: functional
Pseudomonas aeruginosa [32] = assay: Bactericidal activity against drug sensitive Pseudomonas aeruginosa assessed as log reduction in bacterial load at 4 times MIC after 120 mins by time-kill assay; type: functional
Pseudomonas aeruginosa [33] = assay: Potency index, ratio of norfloxacin MIC to compound MIC for Pseudomonas aeruginosa ATCC 27853; type: functional
Pseudomonas aeruginosa [34] = assay: Bactericidal activity against drug sensitive Pseudomonas aeruginosa assessed as bacterial load at 4 times MIC after 120 mins by time-kill assay (reference value: 9.3 10^5 CFU/ml); type: functional
Staphylococcus aureus [35] = assay: Antibacterial activity against Staphylococcus aureus ATCC 25923 after 24 hrs by micro broth dilution method; type: functional; conditions: ATCC 25923, 24 h

T1 sequence (P02768 whole entry): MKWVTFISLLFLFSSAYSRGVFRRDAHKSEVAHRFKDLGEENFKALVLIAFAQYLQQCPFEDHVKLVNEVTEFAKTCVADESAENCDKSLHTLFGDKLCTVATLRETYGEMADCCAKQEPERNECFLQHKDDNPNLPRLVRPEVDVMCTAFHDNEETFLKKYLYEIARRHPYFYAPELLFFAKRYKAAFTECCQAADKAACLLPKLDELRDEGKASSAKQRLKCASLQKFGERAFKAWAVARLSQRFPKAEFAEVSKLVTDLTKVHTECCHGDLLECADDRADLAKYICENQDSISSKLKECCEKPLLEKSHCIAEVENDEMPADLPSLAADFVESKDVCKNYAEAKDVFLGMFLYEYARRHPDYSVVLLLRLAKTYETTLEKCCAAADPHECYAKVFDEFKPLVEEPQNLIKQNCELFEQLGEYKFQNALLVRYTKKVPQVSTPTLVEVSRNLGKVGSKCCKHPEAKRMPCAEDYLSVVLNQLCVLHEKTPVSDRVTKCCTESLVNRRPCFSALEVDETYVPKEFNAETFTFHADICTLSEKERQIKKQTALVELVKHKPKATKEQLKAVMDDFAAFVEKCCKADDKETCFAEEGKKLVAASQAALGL

Which Activity (DNA [1]) does the source give for `COc1cc(/C=C(\C(C)O)n2c([N+](=O)[O-])cnc2C)ccc1O` (stereo not given) here?
Its Activity is “Active”.

And the MIC (Pseudomonas aeruginosa [2])?
Its MIC is 400 µM (≈ 128 µg/mL).

And the K (DNA [3])?
The K was 1.83 ×10⁴ L/mol.

And the MIC (Candida albicans [4])?
The MIC was 32 µg/mL (≈ 100 µM).

What about the Activity (Pseudomonas aeruginosa [5]) of the same compound?
Its Activity is 3 ×10³ CFU/ml.

And the Activity (Pseudomonas aeruginosa [6])?
Its Activity is 72 CFU/ml.

And the Kb (Albumin [7])?
Its Kb is 4.77 ×10⁴ L/mol.

And the Activity (Pseudomonas aeruginosa [8])?
Its Activity is 65 CFU/ml.

And the KSV (Albumin [9])?
The KSV was 82200 M⁻¹.

What about the MIC (Staphylococcus aureus [10]) of the same compound?
Its MIC is 1600 µM (≈ 511 µg/mL).

What about the KSV (Albumin [11]) of the same compound?
The KSV was 47400 M⁻¹.

What about the Kb (Albumin [12]) of the same compound?
The Kb was 4.83 ×10⁴ L/mol.

And the Activity (Pseudomonas aeruginosa [13])?
Its Activity is 1.5 ×10² CFU/ml.

And the MIC (Escherichia coli [14])?
Its MIC is 400 µM (≈ 128 µg/mL).

What about the KSV (Albumin [15]) of the same compound?
The KSV was 6.12 ×10⁴ L/mol.

And the Kq (Albumin [16])?
Its Kq is 7.79 ×10¹³ L/mol/s.

What about the KSV (Albumin [17]) of the same compound?
The KSV was 61800 M⁻¹.

And the MIC (Candida tropicalis [18])?
The MIC was 128 µg/mL (≈ 401 µM).

What about the Kq (Albumin [19]) of the same compound?
Its Kq is 9.56 ×10¹³ L/mol/s.

What about the MIC (Pseudomonas aeruginosa [20]) of the same compound?
The MIC was 100 µM (≈ 31.9 µg/mL).

What about the KSV (Albumin [21]) of the same compound?
The KSV was 7.54 ×10⁴ L/mol.

And the MIC (Candida albicans [22])?
Its MIC is 256 µg/mL (≈ 802 µM).

And the Kb (Albumin [23])?
Its Kb is 4.77 ×10⁴ L/mol.

What about the Activity (DNA [24]) of the same compound?
Its Activity is “Active”.

And the Activity (Pseudomonas aeruginosa [25])?
Its Activity is 87 CFU/ml.

What about the Kq (Albumin [26]) of the same compound?
The Kq was 1.18 ×10¹³ L/mol/s.

And the MIC (Staphylococcus aureus [27])?
The MIC was 800 µM (≈ 255 µg/mL).

What about the KSV (Albumin [28]) of the same compound?
The KSV was 4.99 ×10⁴ L/mol.

And the MIC (Escherichia coli [29])?
Its MIC is 1600 µM (≈ 511 µg/mL).

What about the MIC (Staphylococcus aureus [30]) of the same compound?
The MIC was 1600 µM (≈ 511 µg/mL).

What about the Ratio (Candida tropicalis [31]) of the same compound?
Its Ratio is 4.

What about the Activity (Pseudomonas aeruginosa [32]) of the same compound?
The Activity was >3.5 log10CFU/ml.

What about the Ratio (Pseudomonas aeruginosa [33]) of the same compound?
The Ratio was 4 - 16.

And the Activity (Pseudomonas aeruginosa [34])?
Its Activity is 9.3 ×10⁶ CFU/ml.

What about the MIC (Staphylococcus aureus [35]) of the same compound?
Its MIC is 800 µM (≈ 255 µg/mL).
